Measured values from the supplement of paper PMC10307832.

Tests used:
Test in all cases: relative viability (nuclei count vs DMSO), 5 days (fraction); higher = more cells survive
[1] = compound: CC(C)C[C@@H](C(=O)N[C@H](C(=O)OC1CCCC1)c1ccccc1)[C@H](O)C(=O)NO [Tosedostat] + CS(=O)(=O)CCNCc1ccc(-c2ccc3ncnc(Nc4ccc(OCc5cccc(F)c5)c(Cl)c4)c3c2)o1 [Lapatinib] (partner 2 µM)
Summary of the method: (§1)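 Each reported value is a median over duplicate plates. It expresses relative viability: treated-well nuclei count divided by vehicle-well nuclei count. Lung cancer cell lines in 1536-well plates were dosed by pin tool a day after seeding, alone with one drug or with a fixed anchor-drug dose plus five library-drug doses (not always all listed) in √10 steps, and nuclei were counted after 5 days.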

[2] = compound: CC1=NN=C(O1)C2=NN=C(C=C2)N3CCC(CC3)OC4=C(C=CC(=C4)F)Cl + Cc1nc(NC(=O)N2CCC[C@H]2C(N)=O)sc1-c1ccnc(C(C)(C)C(F)(F)F)c1 [Alpelisib] (partner 2 µM)
Summary of the method: as §1

[3] = compound: CC(C)C[C@@H](C(=O)N[C@H](C(=O)OC1CCCC1)c1ccccc1)[C@H](O)C(=O)NO [Tosedostat] + CS(=O)(=O)N1CCN(Cc2cc3nc(-c4cccc5[nH]ncc45)nc(N4CCOCC4)c3s2)CC1 [Pictilisib] (partner 1 µM)
Summary of the method: as §1

[4] = compound: CC1=NN=C(O1)C2=NN=C(C=C2)N3CCC(CC3)OC4=C(C=CC(=C4)F)Cl + CS(=O)(=O)CCNCc1ccc(-c2ccc3ncnc(Nc4ccc(OCc5cccc(F)c5)c(Cl)c4)c3c2)o1 [Lapatinib] (partner 2 µM)
Summary of the method: as §1

Cell Line | relative viability ([1]; first compound 0.02 µM) | relative viability ([1]; first compound 0.06325 µM) | relative viability ([1]; first compound 0.2 µM) | relative viability ([1]; first compound 0.6325 µM) | relative viability ([1]; first compound 2 µM) | relative viability ([2]; first compound 0.253 µM) | relative viability ([2]; first compound 0.8 µM) | relative viability ([2]; first compound 2.53 µM) | relative viability ([2]; first compound 8 µM) | relative viability ([3]; first compound 0.02 µM) | relative viability ([3]; first compound 0.06325 µM) | relative viability ([3]; first compound 0.2 µM) | relative viability ([3]; first compound 0.6325 µM) | relative viability ([3]; first compound 2 µM) | relative viability ([4]; first compound 0.253 µM) | relative viability ([4]; first compound 0.8 µM) | relative viability ([4]; first compound 2.53 µM) | relative viability ([4]; first compound 8 µM)
NCI-H2228 | 1.11 | 0.991 | 0.822 | 0.784 | 0.533 | 0.684 | 0.545 | 0.923 | 0.479 | 0.438 | 0.492 | 0.347 | 0.354 | 0.217 | 1.03 | 1.01 | 1.13 | 0.848
NCI-H2126 | 0.705 | 0.754 | 0.83 | 0.76 | 0.674 | 0.696 | 0.666 | 0.711 | 0.598 | 0.506 | 0.533 | 0.513 | 0.437 | 0.472 | 0.552 | 0.759 | 0.702 | 0.699
